Like-named read-outs stand apart in the source and are kept apart here. Bridge positions count the residues as written; N and C are the ends. Peptide text beside a SMILES is read from it.
What was measured:
[1] = target: T1, integrin αvβ6 (Homo sapiens, UniProt P06756+P18564); assay: ELISA competition assay, integrin αvβ6 binding to LAP; details: mean
[2] = target: T2, integrin αvβ8 (Homo sapiens, UniProt P06756+P26012); assay: ELISA competition assay, integrin αvβ8 binding to LAP
[3] = target: integrin αvβ3 (Homo sapiens, UniProt P05106+P06756); assay: ELISA competition assay, integrin αvβ3; format: binding
[4] = target: integrin αvβ1 (Homo sapiens, UniProt P05556+P06756); assay: ELISA competition assay, integrin αvβ1; format: binding
[5] = target: integrin αvβ5 (Homo sapiens, UniProt P06756+P18084); assay: ELISA competition assay, integrin αvβ5; format: binding
[6] = target: integrin α5β1 (Homo sapiens, UniProt P05556+P08648); assay: ELISA competition assay, integrin α5β1; format: binding
[7] = target: integrin α8β1 (Homo sapiens, UniProt P05556+P53708); assay: ELISA competition assay, integrin α8β1; format: binding
[8] = target: T3, Mouse αvβ6 (Mus musculus, UniProt P43406+Q9Z0T9); assay: ELISA competition assay, mouse integrin αvβ6; format: binding
T3 sequence (P43406 31-988 limits assumed): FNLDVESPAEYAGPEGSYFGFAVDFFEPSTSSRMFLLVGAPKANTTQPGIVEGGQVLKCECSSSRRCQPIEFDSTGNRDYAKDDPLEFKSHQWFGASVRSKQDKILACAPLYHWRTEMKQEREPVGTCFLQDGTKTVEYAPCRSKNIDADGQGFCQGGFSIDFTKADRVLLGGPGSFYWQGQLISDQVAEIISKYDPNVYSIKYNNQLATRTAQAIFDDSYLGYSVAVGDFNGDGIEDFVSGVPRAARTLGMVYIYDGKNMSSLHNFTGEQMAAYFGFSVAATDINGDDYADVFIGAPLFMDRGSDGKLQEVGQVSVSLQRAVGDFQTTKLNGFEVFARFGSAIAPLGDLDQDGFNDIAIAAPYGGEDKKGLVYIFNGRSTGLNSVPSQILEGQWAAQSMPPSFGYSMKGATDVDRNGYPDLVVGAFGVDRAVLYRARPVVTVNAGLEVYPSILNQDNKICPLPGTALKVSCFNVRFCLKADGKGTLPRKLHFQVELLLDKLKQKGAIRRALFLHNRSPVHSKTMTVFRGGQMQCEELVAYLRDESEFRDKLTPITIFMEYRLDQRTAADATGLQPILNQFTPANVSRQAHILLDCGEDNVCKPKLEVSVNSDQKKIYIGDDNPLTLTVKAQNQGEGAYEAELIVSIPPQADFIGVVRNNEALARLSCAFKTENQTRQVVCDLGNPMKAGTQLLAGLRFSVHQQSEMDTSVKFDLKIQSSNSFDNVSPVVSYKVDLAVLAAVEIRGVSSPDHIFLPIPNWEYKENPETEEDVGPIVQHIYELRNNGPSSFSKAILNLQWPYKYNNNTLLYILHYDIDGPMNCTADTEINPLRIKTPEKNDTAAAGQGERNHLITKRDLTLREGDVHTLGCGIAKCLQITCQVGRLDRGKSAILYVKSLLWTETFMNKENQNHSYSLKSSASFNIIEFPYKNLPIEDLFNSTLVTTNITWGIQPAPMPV
T3 sequence (Q9Z0T9 22-707 limits assumed): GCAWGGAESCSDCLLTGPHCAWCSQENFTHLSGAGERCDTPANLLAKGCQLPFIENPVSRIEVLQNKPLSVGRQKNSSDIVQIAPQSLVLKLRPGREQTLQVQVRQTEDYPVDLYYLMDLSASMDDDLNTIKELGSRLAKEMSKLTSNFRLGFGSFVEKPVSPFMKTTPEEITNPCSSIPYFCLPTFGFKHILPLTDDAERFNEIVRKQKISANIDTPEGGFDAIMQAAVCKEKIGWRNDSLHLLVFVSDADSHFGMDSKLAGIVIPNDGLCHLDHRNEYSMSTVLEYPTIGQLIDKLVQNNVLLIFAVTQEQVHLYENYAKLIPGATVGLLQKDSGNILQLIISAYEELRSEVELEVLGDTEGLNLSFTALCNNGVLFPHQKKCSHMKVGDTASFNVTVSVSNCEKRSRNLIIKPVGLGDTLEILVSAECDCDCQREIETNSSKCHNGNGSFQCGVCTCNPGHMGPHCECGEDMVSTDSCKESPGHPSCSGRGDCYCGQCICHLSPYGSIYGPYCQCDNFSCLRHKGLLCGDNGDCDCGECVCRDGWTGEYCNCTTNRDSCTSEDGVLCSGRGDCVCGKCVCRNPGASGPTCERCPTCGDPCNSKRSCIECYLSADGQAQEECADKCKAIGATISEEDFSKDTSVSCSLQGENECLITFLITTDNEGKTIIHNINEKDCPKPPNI

[9] = target: T4, integrin αIIbβ3 (Homo sapiens, UniProt P05106+P08514); assay: ELISA competition assay, integrin αIIbβ3; format: binding
T4 sequence (P08514 32-993 limits assumed): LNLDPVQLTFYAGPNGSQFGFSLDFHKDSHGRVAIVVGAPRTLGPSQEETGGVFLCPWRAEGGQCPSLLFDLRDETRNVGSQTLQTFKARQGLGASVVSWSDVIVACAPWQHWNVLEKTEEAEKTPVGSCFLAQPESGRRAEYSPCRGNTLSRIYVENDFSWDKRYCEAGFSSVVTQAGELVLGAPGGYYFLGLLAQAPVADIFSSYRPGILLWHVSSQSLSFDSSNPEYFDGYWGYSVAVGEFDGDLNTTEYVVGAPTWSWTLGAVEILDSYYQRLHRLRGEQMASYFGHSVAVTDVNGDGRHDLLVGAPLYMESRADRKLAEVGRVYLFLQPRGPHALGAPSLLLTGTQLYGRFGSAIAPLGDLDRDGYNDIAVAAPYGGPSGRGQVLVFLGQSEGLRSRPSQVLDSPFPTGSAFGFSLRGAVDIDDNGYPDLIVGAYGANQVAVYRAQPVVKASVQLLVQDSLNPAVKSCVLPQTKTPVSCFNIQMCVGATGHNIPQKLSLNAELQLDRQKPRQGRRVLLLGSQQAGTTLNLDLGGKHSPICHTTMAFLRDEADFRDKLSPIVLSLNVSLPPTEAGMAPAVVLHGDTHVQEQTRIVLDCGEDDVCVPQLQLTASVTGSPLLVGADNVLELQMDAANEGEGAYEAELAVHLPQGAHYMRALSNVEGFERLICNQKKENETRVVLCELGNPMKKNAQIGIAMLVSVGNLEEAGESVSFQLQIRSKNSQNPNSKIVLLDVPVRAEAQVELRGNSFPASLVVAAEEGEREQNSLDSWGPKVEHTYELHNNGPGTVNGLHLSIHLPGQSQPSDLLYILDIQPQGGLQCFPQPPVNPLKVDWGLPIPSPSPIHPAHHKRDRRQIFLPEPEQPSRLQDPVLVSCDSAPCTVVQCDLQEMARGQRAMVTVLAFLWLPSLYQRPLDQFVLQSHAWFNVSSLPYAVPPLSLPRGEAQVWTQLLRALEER
T4 sequence (P05106 27-718 limits assumed): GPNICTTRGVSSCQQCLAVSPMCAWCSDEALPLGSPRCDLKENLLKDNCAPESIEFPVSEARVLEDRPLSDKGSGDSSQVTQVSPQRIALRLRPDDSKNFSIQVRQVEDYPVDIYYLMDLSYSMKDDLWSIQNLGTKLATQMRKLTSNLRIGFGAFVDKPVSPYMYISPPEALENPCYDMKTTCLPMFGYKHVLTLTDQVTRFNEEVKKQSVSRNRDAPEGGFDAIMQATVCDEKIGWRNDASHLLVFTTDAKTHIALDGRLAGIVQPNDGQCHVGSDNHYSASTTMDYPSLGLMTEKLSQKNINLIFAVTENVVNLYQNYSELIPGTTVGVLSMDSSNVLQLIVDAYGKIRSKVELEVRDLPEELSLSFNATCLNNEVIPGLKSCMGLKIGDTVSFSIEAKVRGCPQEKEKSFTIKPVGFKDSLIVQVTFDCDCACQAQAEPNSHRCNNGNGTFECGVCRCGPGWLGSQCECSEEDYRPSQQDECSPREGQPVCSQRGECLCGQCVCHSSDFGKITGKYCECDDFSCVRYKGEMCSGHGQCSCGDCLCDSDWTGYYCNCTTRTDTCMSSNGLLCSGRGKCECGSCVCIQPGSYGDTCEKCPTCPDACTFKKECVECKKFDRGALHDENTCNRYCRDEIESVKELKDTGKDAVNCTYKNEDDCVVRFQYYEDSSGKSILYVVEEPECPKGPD

[10] = target: T1, integrin αvβ6; assay: AlphaLISA competition assay vs LAP, biotinylated αvβ6; format: binding
[11] = target: T2, integrin αvβ8; assay: AlphaLISA competition assay vs LAP, biotinylated αvβ8; format: binding
[12] = αvβ6 IC50, ELISA competition vs LAP, n ≥ 3

Row | SMILES | IC50 [1, 12] | IC50 [3] | IC50 [4] | IC50 [5] | IC50 [9] | IC50 [6] | IC50 [7] | IC50 [8] | other results
1 | COc1ccc([C@H](CC(=O)O)N2CCN(CCCc3ccc4c(n3)NCCC4)C2=O)cn1 [MK-0429, reference compound] |  |  |  |  |  |  |  |  | IC50 ([1]; read-out: Human αvß6 IC50, ELISA run in triplicate, Table S1): 1 nM; IC50 ([1]; read-out: αvβ6 IC50, ELISA competition vs LAP, n ≥ 3): 1.3 nM; IC50 ([2]; read-out: αvβ8 IC50, ELISA competition vs LAP, mean, n ≥ 3): 0.7 nM; IC50 ([3]; read-out: αvβ3 IC50, ELISA competition, mean, n ≥ 3): 0.7 nM; IC50 ([4]; read-out: αvβ1 IC50, ELISA competition): 1 nM; IC50 ([5]; read-out: αvβ5 IC50, ELISA competition): 0.08 nM; IC50 ([6]; read-out: α5β1 IC50, ELISA competition): 18 nM; IC50 ([7]; read-out: α8β1 IC50, ELISA competition): 9 nM; IC50 ([8]; read-out: Mouse αvß6 IC50, ELISA run in triplicate, mean, Table S1): 2 nM
2 | CC(C)C[C@H](NC(=O)[C@H](CC(=O)O)NC(=O)CNC(=O)[C@H](CCCNC(=N)N)NC(=O)[C@@H](NC(=O)[C@H](Cc1ccccc1)NC(=O)[C@H](Cc1ccc(O)cc1)NC(=O)[C@@H]1CCC(=O)NCC(=O)NCC(=O)N[C@@H](CCCNC(=N)N)C(=O)NCC(=O)N[C@@H](Cc2c[nH]cn2)C(=O)N[C@@H](C(C)C)C(=O)N2CCC[C@H]2C(=O)N1)C(C)C)C(=O)N[C@@H](CCC(N)=O)C(=O)N[C@@H](CO)C(=O)N[C@@H](Cc1ccccc1)C(=O)N[C@@H](Cc1ccc(O)cc1)C(=O)NCC(=O)O [lassotide 38] (GGRGHVPEYFVRGDLQSFYG-OH; lactam N-8) | 3 nM | 185 nM | 13 nM | > 10000 nM | 126 nM | 397 nM | 1290 nM | 4 nM | 
3 | CC(C)C[C@H](NC(=O)[C@H](CC(=O)O)NC(=O)CNC(=O)[C@H](CCCNC(=N)N)NC(=O)[C@@H](NC(=O)[C@H](Cc1ccccc1)NC(=O)[C@H](Cc1ccc(O)cc1)NC(=O)[C@@H]1CCC(=O)NCC(=O)NCC(=O)N[C@@H](CCCCN)C(=O)NCC(=O)N[C@@H](Cc2c[nH]cn2)C(=O)N[C@@H](C(C)C)C(=O)N2CCC[C@H]2C(=O)N1)C(C)C)C(=O)N[C@@H](CCC(N)=O)C(=O)N[C@@H](CO)C(=O)N[C@@H](Cc1ccccc1)C(=O)N[C@@H](Cc1ccc(O)cc1)C(=O)NCC(=O)O [lassotide 37] (GGKGHVPEYFVRGDLQSFYG-OH; lactam N-8; C-terminus assumed) | 3.1 nM | 186 nM | 21 nM | > 10000 nM | 394 nM | 944 nM | > 10000 nM |  | IC50 [2]: 9 nM
4 | CC[C@H](C)[C@H](NC(=O)[C@H](CC(C)C)NC(=O)[C@H](CC(=O)O)NC(=O)CNC(=O)[C@H](CCCNC(=N)N)NC(=O)[C@H](CCC(N)=O)NC(=O)[C@H](Cc1ccccc1)NC(=O)[C@H](Cc1ccc(O)cc1)NC(=O)[C@@H]1CCC(=O)NCC(=O)NCC(=O)N[C@@H](C)C(=O)NCC(=O)N[C@@H](Cc2c[nH]cn2)C(=O)N[C@@H](C(C)C)C(=O)N2CCC[C@H]2C(=O)N1)C(=O)N[C@@H](CO)C(=O)N[C@@H](Cc1ccccc1)C(=O)N[C@@H](Cc1ccc(O)cc1)C(=O)NCC(=O)O [lassotide 21] (GGAGHVPEYFQRGDLISFYG-OH; lactam N-8; C-terminus assumed) |  |  |  |  |  |  |  | 44 nM | IC50 ([1]; Human αvß6 IC50, ELISA run in triplicate, Table S1): 40 nM; IC50 [10]: 16 nM; IC50 [11]: 39 nM

From publication doi:10.1101/2025.01.28.635346v1 (bioRxiv, 2025)
